Reference: patent US9770430B2, “Desferrioxamine-metal complexes for the treatment of immune-related disorders” (priority 2009, dated 2017)
Several values for one entry are separate records, joined by “and”; a condition that tells them apart may be missing. Equal values may be shown once.

Assays:
[1] = test system: high energy diet-induced Type II diabetes; assay: Sand rat high energy diet Type II diabetes model, blood glucose and body weight (Example 5); format: in vivo, sand rat (Psammomis obesus)
Text: (§1) Sand rats (Psammomis Obesus) were used as a model for Type 2 diabetes. The sand rats transferred onto high energy diet develop a severe form of Type 2 diabetes, including high blood glucose level, increase in body weight, and cataract development (eye lens opacification).
(§2) The sand rats were divided into groups. The animals from the Group I received the standard diet, serving as a control, whereas animals from the other indicated groups received high energy diet, leading to diabetes development. The high-energy diet ed mice were either untreated, or treated with intra-peritoneal injections of 2.5 mg/kg body weight Ga-DFO, Zn-DFO, DFO alone, Zn, Ga or lipoic acid (LA), either twice or three times per week, as indicated, for the duration of the experiment. The blood glucose and body weight of the animals were monitored throughout the experiment.
The sand rats were divided into four groups (6 animals in each). Animals from Group I received the standard diet, serving as a control. The animals from the Groups II, III and W received high energy diet, leading to diabetes development, while Groups III and IV were treated with Ga-DFO and lipoic acid (LA), respectively. The intra-peritoneal injections of 2.5 mg Ga-DFO or LA per kg body weight were performed twice a week, for 61 days. The blood glucose and body weight of the animals were monitored during all the experiment.

[2] = complex of desferrioxamine with the named metal ion; cited from earlier work
[3] = test system: high energy diet-induced Type II diabetes; assay: Sand rat high energy diet Type II diabetes model, glucose tolerance test and cataract formation (Example 6); format: in vivo, sand rat (Psammomis obesus); conditions: for three hours response to an orally-administered glucose dose, value above the zero (standard diet Group I): 200 mg glucose per 100 g body weight, end of 53 day experiment, high energy diet; for Cataract formation: high energy diet (HE) sand rats, 53 days
Text: as §1, §2
Forty two sand rats were divided into seven groups, six animals in each. The animals from Group I received the standard diet and used as a control. The animals from the Groups II, III, IV, V, VI and VII received high energy diet, leading to diabetes development, while Groups III, IV and VII were treated with Zn-DFO, Ga-DFO and DFO alone, respectively. The Groups V and VI received Zn and Ga, in their chloride salt form, alone respectively. Administration of the different treatments was as described, and the experiment lasted for 53 days. Glucose tolerance test was performed at the end of experiment. The cataract formation was tested as well.

[4] = pH limit of the complex solution during preparation (loss of biological activities); format: physicochemical; conditions: pH above 5.6; solution reacts with air-containing CO2
ovalbumin-induced asthma [5] = assay: Ovalbumin-induced asthma, prophylactic treatment model (lung ferritin); format: in vivo, BALB/c mice; conditions: asthmatic mice, 1 and 0.3 mg/kg i.p., then 0.3 mg/kg i.n.
Method: Ferritin concentration was quantified using an indirect ‘sandwich’ ELISA assay in accordance with a procedure developed previously in our laboratory. Briefly, ELISA 96-well micro plates were pre-coated with goat anti-human L-ferritin antibody. Rabbit anti-human H-ferritin was used as the secondary antibody. Plates were treated with goat anti-rabbit IgG conjugated with β-galactosidase. Chlorophenol Red-β-D-Galactopyranoside was then added and the plates analyzed using a microplate reader with a test (570 nm) and reference (630 nm) filters.
• Twelve-week-old Balb/c mice were administered 10 μg (100 μl) ovalbumin (OVA) dissolved with 3 mg Al(OH)3 in 0.9% saline intraperitoneally (i.p.) on days 0, 7 and 14, and 10 μg (50 μl) OVA intranasally (i.n.) on days 20, 23, 25, 27, 29, 31, 34, 36, 37, 41, 43 and 45. […]
(§3) To estimate the anti-asthmatic effect of the complexes the following parameters were measured: the concentration of ferritin in the lungs, the presence of inflammatory cells infiltration into the lungs, and the amounts of macrophages, eosinophils, lymphocytes and neutrophils in bronchoalveolar lavages (BALs).

ovalbumin-induced asthma [6] = assay: Ovalbumin-induced asthma, treatment of chronic asthma model (BAL cells, lung histology); format: in vivo, BALB/c mice; conditions: Mean ± SE
Method: • Twelve-week-old Balb/c mice were administered 10 μg (100 μl) ovalbumin (OVA) dissolved with 3 mg Al(OH)3 in 0.9% saline intraperitoneally (i.p.) on days 0, 7 and 14, and 10 μg (50 μl) OVA intranasally (i.n.) on days 20, 23, 25, 27, 29, 31, 34, 36, 37, 41, 43 and 45. For intranasal administration, mice were anesthetized with inhaled N-flurane and instilled with OVA i.n. with a micropipette. • Three-week-old BALB/c mice were sensitized (×3) with intra-peritoneal (i/p) injection (100 μl OVA solution, containing 0.3 mg OVA and 6.7 mg Al(OH)3, in 1 ml PBS) on days 0, 7 and 14. On days 14, 15, 17, 21 and 23 the mice were further sensitized with intranasal sprinklings (50 μl, each) of OVA in PBS solution containing 2 mg/ml OVA, as following: mice were anesthetized with inhaled N-flurane and instilled with OVA intra-nasally using a micropipette. Twenty-four hours after the last administration of OVA, the mice were sacrificed. Methacholine Challenge and Collection of Histologic Sections and Biochemical Samples
Either Zn-DFO, Ga-DFO, Zn-DFO and Ga-DFO 1:1 combination (herein metal complexes) or saline were administered as follows: on days −5, −1, 7 and 14, 1 mg/kg body weight metal complexes or saline were administered intraperitoneally (i.p.). On days 0, 6, 8, 13 and 15, 0.3 mg/kg body weight metal complexes or saline were administered i.p. On days 20, 23, 25, 27, 29, 31, 34, 36, 37, 41, 43 and 45, 0.3 mg/kg body weight metal complexes or saline were administered intranasally (i.n.). Twenty-four hours after the last sensitization, mice were anesthetized with urethane and the lungs were lavaged 4 times with 0.5 ml sterile PBS. Animals in the “control” group (non-asthmatic—saline treated, but not sensitized) (n=6) received saline injections and instillations, using the same regime as the asthmatic and treated animals. Animals of the “asthmatic” group (sensitized and saline-treated, rather than complex-treated) (n=6) received saline instead of the respective complex, under the same regime.
For the treatment of chronic asthma model, a similar experimental protocol was followed, with the following modifications: 1 mg/kg body weight metal complexes or saline were administered i.p. on day 0 (instead of days −5 and −1) and a further 0.3 mg/kg complexes or saline were administered on day 1. In this model, the effects of the complexes were investigated further by histological examination of lung sections stained with either haematoxylin-eosine or PAS/AB (periodic acid-Schiff/alcan blue).
as §3

[7] = Day 0, 2.5 mg/kg i.p. twice a week, mean, SD in the line below
[8] = Day 7, 2.5 mg/kg i.p. twice a week
[9] = Day 21, 2.5 mg/kg i.p. twice a week
[10] = Day 21, 2.5 mg/kg i.p. twice a week, 2.5 mg/kg
[11] = Day 32, 2.5 mg/kg i.p. twice a week
[12] = Day 42, 2.5 mg/kg i.p. twice a week
[13] = Day 49, 2.5 mg/kg i.p. twice a week
[14] = Day 56, 2.5 mg/kg i.p. twice a week
[15] = Day 61, 2.5 mg/kg i.p. twice a week
[16] = Day 61, 2.5 mg/kg i.p. twice a week, 2.5 mg/kg

O=C(O)CCCCC1CCSS1 (stereo not shown) [LA, Lipoic acid, reference compound]
Blood glucose level [1, 7]: 92.8 mg/dL | Body weight [1, 7]: 113.4 g | Blood glucose level [1, 8]: 97.4 mg/dL | Body weight [1, 8]: 137.0 g | Body weight [1, 9]: 160.4 g | Blood glucose level [1, 10]: 259 ± 49 mg/dL and 259.4 mg/dL | Blood glucose level [1, 11]: 176.4 mg/dL | Body weight [1, 11]: 170.2 g | Blood glucose level [1, 12]: 196.4 mg/dL | Body weight [1, 12]: 189.2 g | Blood glucose level [1, 13]: 185.2 mg/dL | Body weight [1, 13]: 201.4 g | Blood glucose level [1, 14]: 220.6 mg/dL | Body weight [1, 14]: 211.8 g | Body weight [1, 15]: 218.0 g | Blood glucose level [1, 16]: 168 ± 33 mg/dL and 167.8 mg/dL

CC(=O)N([O-])CCCCCNC(=O)CCC(=O)N([O-])CCCCCNC(=O)CCC(=O)N([O-])CCCCCN.[Fe+3] [Fe(III), reference compound]
relative stability constants for the complexes of desferrioxamine [2]: 10^31

[Cl-].[Cl-].[Cl-].[Ga+3] [Ga, Gallium (III) chloride]
three hours response to an orally-administered glucose dose, value above the zero (standard diet Group I) [3]: 25 mg/dL | Cataract formation [3]: 36%

CC(=O)N([O-])CCCCCNC(=O)CCC(=O)N([O-])CCCCCNC(=O)CCC(=O)N([O-])CCCCCN.[Ga+3] [Ga-DFO, gallium-desferrioxamine]
effect of higher pH on the Ga-DFO solution [4]: marked loss of the biological activities | lung ferritin level (ovalbumin-induced asthma [5]): 0.5 ± 0.3 µg/mg | Eosinophils in BAL fluid (ovalbumin-induced asthma [6]): 0.2 ± 0.02^# 10^4 cells/ml | Lymphocytes in BAL fluid (ovalbumin-induced asthma [6]): 0.3 ± 0.06^# 10^4 cells/ml | Macrophages in BAL fluid (ovalbumin-induced asthma [6]): 3.3 ± 0.2^# 10^4 cells/ml | Neutrophils in BAL fluid (ovalbumin-induced asthma [6]): 0.3 ± 0.07^# 10^4 cells/ml | Total WBC in BAL fluid (ovalbumin-induced asthma [6]): 4.5 ± 0.6^# 10^4 cells/ml | Blood glucose level [1, 7]: 91.8 mg/dL | Body weight [1, 7]: 131.6 g | Blood glucose level [1, 8]: 94.6 mg/dL | Body weight [1, 8]: 154.0 g | Body weight [1, 9]: 173.2 g | Blood glucose level [1, 10]: 176 ± 46 mg/dL and 176.4 mg/dL | Blood glucose level [1, 11]: 81.2 mg/dL | Body weight [1, 11]: 180.4 g | Blood glucose level [1, 12]: 89.0 mg/dL | Body weight [1, 12]: 192.4 g | Blood glucose level [1, 13]: 122.0 mg/dL | Body weight [1, 13]: 204.0 g | Blood glucose level [1, 14]: 129.2 mg/dL | Body weight [1, 14]: 212.4 g | Body weight [1, 15]: 214.4 g | Blood glucose level [1, 16]: 98 ± 29 mg/dL and 97.8 mg/dL | three hours response to an orally-administered glucose dose, value above the zero (standard diet Group I) [3]: 5 mg/dL | Cataract formation [3]: 11% | relative stability constants for the complexes of desferrioxamine [2]: 10^28

[Cl-].[Cl-].[Zn+2] [Zn, Zinc chloride]
three hours response to an orally-administered glucose dose, value above the zero (standard diet Group I) [3]: 38 mg/dL | Cataract formation [3]: 22%

CC(=O)N(O)CCCCCNC(=O)CCC(=O)N(O)CCCCCNC(=O)CCC(=O)N(O)CCCCCN [DFO, N′-{5-[acetyl(hydroxy)amino]pentyl}-N-[5-({4-[(5-aminopentyl)(hydroxy)amino]-4-oxobutanoyl}amino)pentyl]-N-hydroxy-succinamide]
three hours response to an orally-administered glucose dose, value above the zero (standard diet Group I) [3]: 150 mg/dL | Cataract formation [3]: 25%
